Assay results from patent publication US20230017266A1, “Cyclooxygenase-2 Inhibition for the Treatment of SAA-high Asthma” (THE USA, AS REPRESENTED BY THE SECRETARY, DEPT. OF HEALTH …, priority 2019, published 2023).

What was measured:
[1] = test system: THP-1 monocytes; assay: Cytokine secretion by THP-1 monocytes stimulated with endogenous SAA-high HDL; format: cell-based, human; conditions: pre-treated 1 h; for ability of endogenous SAA-high HDL to induce cytokine secretion: SAA-high HDL 24 h
Protocol: HDL Isolation and Analysis. HDL was isolated from plasma by size-exclusion chromatography using two Superose 6 columns in series on an Akta FPLC system (GE Healthcare Life Sciences, Pittsburgh, Pa.), as previously described. FPLC fractions were assayed for cholesterol content (Cholesterol E, catalog #996021611, FUJIFILM Wako Diagnostics USA, Mountain View, Calif.) to identify HDL fractions, which were pooled and concentrated using a 10-kDa exclusion filter (Amicon Ultra Centrifuge Filters, Millipore, Darmstadt, Germany). The content of SAA in purified HDL was quantified using the human SAA ELISA kit, while APOA1 was quantified using the human APOA1 ELISA development kit (Mabtech, Nacka Strand, Sweden). THP-1 monocytes (American Type Culture Collection, Manassas, Va.) were treated with HDL from SAA-high asthmatics (n=16), as well as HDL from asthmatics with the lowest SAA levels (n=16), and the quantity of […], IL-6, TNF-α, and IL-10 secreted into culture medium over 24 h was assayed using Human DuoSet ELISA kits (R&D Systems, Minneapolis, Minn.) and data were acquired using a SpectraMax M2 spectrophotometer (Molecular Devices, San Jose, Calif.).
Stimulation of THP-1 monocytes with endogenous HDL from SAA-high asthmatics and suppression of cytokine secretion were further studied. HDL (4 μg of protein/ml) isolated from plasma from a SAA-high asthmatic (SAA-high HDL) and from a healthy non-asthmatic subject (Normal HDL) were used to stimulate THP-1 monocytes for 24 h. THP-1 monocytes were pre-treated with the FPR2 antagonist, WRW4 or water (40 μM) as the vehicle control, or A438079 or DMSO (10 μM) as the vehicle control, for 1 h prior to stimulation with normal or SAA-high HDL for 24 h. One-way ANOVA with Sidak's multiple comparisons test. ****P<0.0001.
HDL ([…] of protein/ml) isolated from plasma from a SAA-high asthmatic (SAA-high HDL) and from a healthy non-asthmatic subject (Normal HDL) were used to stimulate THP-1 monocytes for 24 h. THP-1 monocytes were pre-treated with BAY-11-7082 ([…] (1 μM) or DMSO (10 μM) as the vehicle control for 1 h, as indicated, prior to stimulation with normal or SAA-high HDL for 24 h. One-way ANOVA with Sidak's multiple comparisons test. ****P<0.0001.
HDL (4 μg of protein/ml) isolated from plasma from a SAA-high asthmatic (SAA-high HDL) and from a healthy non-asthmatic subject (Normal HDL) were used to stimulate THP-1 monocytes for 24 h. A. THP-1 monocytes were pre-treated with celecoxib or DMSO (0.01 μM) as the vehicle control for 1 h, as indicated, prior to stimulation with normal or SAA-high HDL for 24 h. One-way ANOVA with Sidak's multiple comparisons test. ****P<0.0001.

[2] = test system: PTGS2 mRNA; assay: PTGS2 mRNA levels in CD14+ monocytes cultured with HDL+SAA1 (qRT-PCR); format: cell-based, human; conditions: 24 h
Protocol: Quantitative RT-PCR (qRT-PCR). Total RNA was purified using the Direct-Zol™ RNA MiniPrep kit and total RNA (100 ng) was reverse transcribed into cDNA using the High-Capacity cDNA Reverse Transcription Kit (Applied Biosystems, Foster City, Calif.). Polymerase chain reactions (PCR) were performed on duplicate cDNA samples using TaqMan Universal PCR Master Mix, FAM-MGB dye-labeled Taqman® PTGS2 probe (Assay ID Hs00153133_m1, catalog #4331182), and a 7900 Real Time PCR System running Sequence Detector version 2.4 software, all from Applied Biosystems (Foster City, Calif.). Gene expression was quantified relative to expression of 18S rRNA using the control sample as a calibrator to calculate the difference in Ct values (ΔΔCt) and presented as relative mRNA expression. For quantification of miR-155-5p expression, miRNA present in total RNA (10 ng) was converted to cDNA using the microRNA cDNA Reverse Transcription kit (Applied Biosystems, Foster City, Calif.). Polymerase chain reaction (PCR) was performed on duplicate cDNA samples using TaqMan Universal PCR Master Mix, Taqman® MicroRNA Assay for has-miR-155-5p (Assay ID #002623, catalog #4427975), and a 7900HT Fast Real-Time PCR System running Sequence Detector version 2.4 software (ThermoFisher Scientific, Waltham, Mass.). miR-155-5p expression was quantified relative to expression of U6 snRNA using the control sample as calibrator to calculate the difference in Ct values (ΔΔCt) and presented as relative mRNA expression.
miR-155 Inhibition. CD14+ monocytes were suspended in 4D human monocyte Nucleofector™ solution (Amaxa™ P3 Primary Cell 4D-Nucleofector™ X kit, catalog #V4XP-3024, Lonza, Walkersville, Md.) to a final concentration of 2×10^6 cells/100 […] at room temperature. […] CD14^+ monocytes were plated at a density of 4×10^4 cells/well in a 96-well plate to collect culture media for cytokine quantification and the remaining cells were plated in a 24-well plate to isolate total RNA for qRT-PCR. After 72 h, cytokine secretion was quantified by ELISA and mRNA levels were quantified by qRT-PCR.

[3] = A438079 10 μM, SAA-high HDL 4 μg of protein/ml 24 h

NC(=O)Nc1sc(-c2ccc(F)cc2)cc1C(N)=O [TPCA1]
ability of endogenous SAA-high HDL to induce cytokine secretion ([1]; TPCA-1 1 μM): abrogate
HDL+SAA1-mediated increases in PTGS2 mRNA ([2]; TPCA-1 1 μM): prevented

Cc1ccc(S(=O)(=O)/C=C/C#N)cc1 [BAY 11-7082]
ability of endogenous SAA-high HDL to induce cytokine secretion ([1]; BAY-11-7082 10 μM): abrogate
HDL+SAA1-mediated increases in PTGS2 mRNA ([2]; BAY-11-7082 10 μM): prevented

Clc1cccc(-c2nnnn2Cc2cccnc2)c1Cl [A438079]
IL-1β secretion induced by endogenous SAA-high HDL [1, 3]: inhibited
IL-6 secretion induced by endogenous SAA-high HDL [1, 3]: inhibited
TNF-α secretion induced by endogenous SAA-high HDL [1, 3]: inhibited
HDL+SAA1-mediated increases in PTGS2 mRNA ([2]; A438079 10 μM): attenuated
